In US12076443B2, “Preparation method of nanozyme composite-based hybrid hydrogel eye drop” (INSTITUTE OF OPHTHALMOLOGY AFFILIATED TO SHANDONG FIRST …, priority 2022, dated 2024):

Legend:
[1] = test system: P. aeruginosa; experiment: in vitro antibacterial experiment of TCNH eye drop; assay type: cell-based, Pseudomonas aeruginosa
Text: (§1) The TCNH eye drop prepared in the above embodiment was used in in vitro antibacterial experiments for Escherichia coli (E. coli), P. aeruginosa, drug-resistant P. aeruginosa, and Candida albicans (C. albicans) and in vivo prevention and treatment experiments for corneal infections caused by P. aeruginosa and drug-resistant P. aeruginosa.
(§2) FIG. 4 to FIG. 6 show results of the in vitro antibacterial experiments of the TCNH eye drop.

[2] = test system: drug-resistant P. aeruginosa; experiment: in vitro antibacterial experiment of TCNH eye drop; assay type: cell-based, Pseudomonas aeruginosa
Text: as §1, §2

[3] = test system: Candida albicans (C. albicans); experiment: in vitro antibacterial experiment of TCNH eye drop; assay type: cell-based
Text: as §1, §2

[4] = test system: Escherichia coli (E. coli); experiment: in vitro antibacterial experiment of TCNH eye drop; assay type: cell-based
Text: as §1, §2

[5] = test system: P. aeruginosa; experiment: in vivo antibacterial experiment, corneal infection (P. aeruginosa); conditions: FIGS. 7A-7B
Text: as §1

[6] = test system: drug-resistant P. aeruginosa strain; experiment: in vivo antibacterial experiment, corneal infection (drug-resistant P. aeruginosa strain); conditions: FIGS. 8A-8B
Text: as §1

[7] = test system: P. aeruginosa; conditions: P. aeruginosa isolated from the ocular surface; cited from earlier work

## OO [H2O2, hydrogen peroxide]
[1]; FIG. 4
  bacterial colonies on plates (plate experiment): overgrown with bacteria
[1]; FIG. 5
  live bacteria stained green / dead bacteria stained red: a large number of live bacteria stained green and a small number of dead bacteria stained red
[1]; FIG. 6
  bacterial morphology under a scanning electron microscope: regular and intact morphology
[2]; FIG. 4
  bacterial colonies on plates (plate experiment): overgrown with bacteria
[2]; FIG. 5
  live bacteria stained green / dead bacteria stained red: a large number of live bacteria stained green and a small number of dead bacteria stained red
[2]; FIG. 6
  bacterial morphology under a scanning electron microscope: regular and intact morphology
[3]; FIG. 4
  bacterial colonies on plates (plate experiment): overgrown with bacteria
[3]; FIG. 5
  live bacteria stained green / dead bacteria stained red: a large number of live bacteria stained green and a small number of dead bacteria stained red
[3]; FIG. 6
  bacterial morphology under a scanning electron microscope: regular and intact morphology
[4]; FIG. 4
  bacterial colonies on plates (plate experiment): overgrown with bacteria
[4]; FIG. 5
  live bacteria stained green / dead bacteria stained red: a large number of live bacteria stained green and a small number of dead bacteria stained red
[4]; FIG. 6
  bacterial morphology under a scanning electron microscope: regular and intact morphology
[5]
  corneal infection: obviously infected

## NC[C@H]1O[C@H](O[C@H]2[C@H](O)[C@@H](O[C@H]3O[C@H](CO)[C@@H](O)[C@H](N)[C@H]3O)[C@H](N)C[C@@H]2N)[C@H](N)C[C@@H]1O [tobramycin]
[6]
  corneal infection: significant infection

## gentamicin
[6]
  corneal infection: significant infection
[7]
  average resistance rate of P. aeruginosa to the antibiotic: 22%

## CC(C)(O/N=C(\C(=O)N[C@@H]1C(=O)N2C(C(=O)[O-])=C(C[n+]3ccccc3)CS[C@H]12)c1csc(N)n1)C(=O)O [ceftazidime]
[7]
  average resistance rate of P. aeruginosa to the antibiotic: 13%

## O=C(O)c1cn(C2CC2)c2cc(N3CCNCC3)c(F)cc2c1=O [ciprofloxacin]
[7]
  average resistance rate of P. aeruginosa to the antibiotic: 9%
